{
  "source": "patent US20040266718A1",
  "about": "“Inhibition of specific histone deacetylase isoforms” (priority 2001, published 2004)",
  "assay_type_in_all_cases": "cell-based, human",
  "key": {"[1]": {"tested_on": "Bax mRNA expression in A549 cells", "assay": "RNase protection assay, Bax in A549", "conditions": "TSA vs lipofectin, 250 ng/ml, 16 hours", "experimental": "(§3) As a control, A549 cells were treated by lipofectin with or without TSA (250 ng/ml) treatment for 16 hours. These RNase protection assays were done according to the following procedure. Total RNA from cells was prepared using “RNeasy miniprep kit” from QIAGEN following the manufacturer's manual. Labeled probes used in the protection assays were synthesized using “hStress-1 multiple-probe template sets” from Pharmingen (San Diego, Calif., U.S.A.) according to the manufacturer's instructions. Protection procedures were performed using “RPA II™ Ribonuclease Protection Assay Kit” from Ambion, (Austin, Tex.) following the manufacturer's instructions. Quantitation of the bands from autoradiograms was done by using Cyclone™ Phosphor System (Packard Instruments Co. Inc., Meriden, Conn.)."}, "[2]": {"tested_on": "T24", "assay": "apoptosis, Cell Death Detection ELISA, T24", "conditions": "100 ng/ml", "procedure": "(§1) In order to determine the effect of HDAC OSDNs on cell growth and cell death through apoptosis, A549 or T24 cells, MDAmb231 cells, and HMEC cells (ATCC, Manassas, Va.) were treated with HDAC OSDNs as previously described.\n(§2) For the apoptosis study, cells were analyzed using the Cell Death Detection ELISA^Plus kit (Roche Diagnostic GmBH, Mannheim, Germany) according to the manufacturer's directions. Typically, 10,000 cells were plated in 96-well tissue culture dishes for 2 hours before harvest and lysis. Each sample was analyzed in duplicate. ELISA reading was done using a MR700 plate reader (DYNEX Technology, Ashford, Middlesex, England) at 410 nm. The reference was set at 490 nm."}, "[3]": {"tested_on": "HMEC", "assay": "apoptosis, Cell Death Detection ELISA, HMEC", "conditions": "100 ng/ml, normal cells", "procedure": "as §1, §2"}, "[4]": {"tested_on": "A549", "assay": "apoptosis, Cell Death Detection ELISA, A549", "conditions": "100 ng/ml", "procedure": "as §1, §2"}, "[5]": {"tested_on": "MDAmb231", "assay": "apoptosis, Cell Death Detection ELISA, MDAmb231", "conditions": "100 ng/ml", "procedure": "as §1, §2"}, "[6]": {"tested_on": "p21 mRNA expression in A549 cells", "assay": "RNase protection assay, p21 in A549", "conditions": "TSA vs lipofectin, 250 ng/ml, 16 hours", "experimental": "as §3"}, "[7]": {"tested_on": "GADD45 mRNA expression in A549 cells", "assay": "RNase protection assay, GADD45 in A549", "conditions": "TSA vs lipofectin, 250 ng/ml, 16 hours", "experimental": "as §3"}},
  "data": [
    {"smiles": "CC(/C=C/C(=O)NO)=C\\[C@@H](C)C(=O)c1ccc(N(C)C)cc1", "note": "[TSA, (R)-Trichostatin A, reference compound]", "values": [
      {"measurement": "fold induction of transcription, Bax, A549", "setting": "[1]", "value": 0.8, "unit": "fold"},
      {"measurement": "Apoptosis After 48 Hour Treatment T24", "setting": "[2]", "value": "++ (3-5X fold)"},
      {"measurement": "Apoptosis After 48 Hour Treatment HMEC", "setting": "[3]", "value": "+ (2-3X fold)"},
      {"measurement": "Apoptosis After 48 Hour Treatment A549", "setting": "[4]", "value": "++ (3-5X fold)"},
      {"measurement": "Apoptosis After 48 Hour Treatment MDAmb231", "setting": "[5]", "value": "++ (3-5X fold)"},
      {"measurement": "fold induction of transcription, p21, A549", "setting": "[6]", "value": 2.8, "unit": "fold"},
      {"measurement": "fold induction of transcription, GADD45, A549", "setting": "[7]", "value": 0.6, "unit": "fold"}
    ]}
  ]
}
